Test results: patent US20200080052A1, “METHOD OF REDUCING CHROMOSOME SEGREGATION ERROR IN CELLS OF THE EARLY EMBRYO” (CENTRE HOSPITALIER DE L'UNIVERSITÉ DE MONTRÉAL, priority 2018, published 2020)

How the values were obtained:
mouse embryos [1] = test: Culture to blastocyst and immunofluorescence analysis (development, cell numbers, micronuclei per cell); format: cell-based; conditions: for micronuclei per cell in blastocyst: 2-cell stage to blastocyst, controls 0.022, P<0.05; for number of micronuclei compared to controls: P<0.01
Description: (§1) Embryo collection, culture and chemical treatments. All experiments were approved by the Centre de Recherche du Centre Hospitalier de l'Université de Montréal (CRCHUM) Comité Institutionnel de Protection des Animaux (CIPA). Two-cell embryos were obtained from superovulated 2-3-month-old CD-1 female mice mated with CD-1 males. Embryos were collected in M2 media and cultured in KSOM media drops covered in mineral oil at 37° C. in 5% CO2. For chemical treatments, media was supplemented with the following compounds: AZ3146 (20 μM), GSK923295 (various concentrations), nocodazole (various concentrations), Cytochalasin B (5 μg/ml), MG132 (25 μM), proTAME (various concentrations). All drug stocks are dissolved in DMSO. For experiments involving proTAME, embryos were cultured without oil in 500 μL of media in 4-well plates.
(§2) Z-stack images of embryos (˜50 μm) with step size 2 μm were obtained at a time interval of 30 sec for experiments concerning H2BRFP only, 2 min for H2B:RFP-GAP43:GFP, and 3 min H2B:RFP-Mad1:EGFP experiments. For live-cell experiments at two-cells, eight cell, morula and blastocyst, imaging was started at ˜48 h, 72 h, 84 h and ˜96 h post-hCG administration and mating, respectively. For immunofluorescence embryos were fixed in 2% PFA in PBS (20 min) and permeabilised in 0.25% Triton™ X-100 in PBS (10 min), for Mad2 immunofluorescence embryos were fixed for 15 min in PHEM buffer containing 2% PFA and 0.05% Triton™ X-100, and permeabilised in 0.05% Triton™ X in PHEM buffer for 15 min. Blocking was performed in 3% bovine serum albumin in PBS, for 1 hr at 37° C. or overnight at 4° C. Primary antibodies used were rabbit anti-Mad2 (1:300), mouse anti-alpha-Tubulin (1:1000), anti-rabbit and anti-mouse AlexaFluor secondaries were used at 1:1000 dilution. Alexa-555-Phalloidin (1:300) and Hoechst (1:1000) were used to visualize F-actin and DNA, respectively. Briefly, immunofluorescence confocal imaging was performed on a Leica™ SP8 microscope using a 63×1.4 NA oil objective lens, using a 1.5 μm optical section and acquiring Z-stacks with a step size of 1.5 μm, described in more detail in (Vázquez-Diez et al., 2018). In fixed-cell experiments involving GSK923295 and nocodazole embryos were exposed from the 8-cell stage, ˜72 h post-hCG and mating for ˜16 h and immediately fixed. Blastocyst immunofluorescence analysis was performed at late blastocyst stage, ˜120 h post-hCG.
(§3) All image analysis was performed using Fiji software. Time-lapse Z-stacks were examined to determine mitosis duration and identify chromosome alignment and segregation errors. Spindle length measurements were performed measuring the distance between spindle poles, using Pythagoras' theorem where spindle poles were located on different Z-slices. Mad2 Immunofluorescence was quantified by subtracting nuclear envelope and background maximum grey values. To calculate cell volume for each cell at metaphase, areas delineated by the cell membrane (GAP43:GFP signal) were manually traced and measured at each Z-slice, the sum of the areas was multiplied by the step size (2 μm). All data analysis was performed using GraphPad™ Prism, statistical test used were accordingly noted in figures, α=0.05.

mouse embryos [2] = test: Live imaging of chromosome segregation dynamics in H2B:RFP-expressing embryos; format: cell-based; conditions: for change in mitosis duration: 10 nM nocodazole
Description: as §1
(§4) All imaging was performed on a Leica™ SP8 confocal microscope with HyD detectors. For live imaging embryos were placed in a heated top-stage incubator with CO2 supply and imaged with a 20×0.75 NA objective as previously described (Vázquez-Diez et al., 2016). All imaging was performed in ˜2 μL drops under mineral oil, for experiments involving proTAME, embryos were cultured in Ibidi micro-insert wells mounted on a glass-bottom dish with distilled water and the inventors' setup was modified to provide humidified CO2 gas supply, previously described in extensive detail (Vázquez-Diez et al., 2018).
as §2, §3

mouse embryos [3] = test: Fixed-cell analysis of embryos after ~16 h exposure from the 8-cell stage (mitotic index, misaligned chromosomes, Mad2); format: cell-based; conditions: for metaphase cells with multiple misaligned chromosomes: morulae, 16 hour exposure
Description: as §1, §2, §3

mouse embryos [4] = test: Live imaging of H2B:RFP and Mad1:EGFP-expressing embryos; format: cell-based; conditions: 500 nM GSK923295
Description: (§5) All micromanipulations were performed on a Leica™ DM14000 inverted microscope fitted with Narashige micromanipulators. […] Embryos where thoroughly washed in over a dozen drops of M2 media prior to transfer and incubation in equilibrated KSOM medium for at least 2 hours prior to imaging to allow them to recover from the cytoplasmic removal procedure. Microinjections were performed as described previously (Nakagawa and FitzHarris, 2016; Vázquez-Diez and FitzHarris, 2018; Vázquez-Diez et al., 2016). cRNA was synthesized using mMessenger Machine kit (Ambion) as previously (Nakagawa et al., 2017; Vázquez-Diez et al., 2018), from the following plasmids; pRN4-H2B:RFP, psC2-GAP43:GFP, MajSatTALE:mClover (pTALYM3B15)(Miyanari et al., 2013).
as §4, with “2018). […]” for “2018).”

mouse embryos [5] = test: Cytoplasmic removal and live imaging of H2B:RFP-GAP43:GFP embryos (mitosis duration vs cell volume); format: cell-based; conditions: 10 nM nocodazole, un-manipulated or cytoplasmically reduced
Description: as §5
All imaging was performed on a Leica™ SP8 confocal microscope with HyD detectors. For live imaging embryos were placed in a heated top-stage incubator with CO2 supply and imaged with a 20×0.75 NA objective as previously described (Vázquez-Diez et al., 2016). […]
All image analysis was performed using Fiji software. […] Mad2 Immunofluorescence was quantified by subtracting nuclear envelope and background maximum grey values. To calculate cell volume for each cell at metaphase, areas delineated by the cell membrane (GAP43:GFP signal) were manually traced and measured at each Z-slice, the sum of the areas was multiplied by the step size (2 μm). […]

oocytes = test: Polar body extrusion (PBE) of meiosis-I in microinjected oocytes; format: cell-based, mouse; conditions: oocytes microinjected with Mad2 MO vs Control MO
[6] = 500 nM GSK923295, 8-16 cell transition
[7] = proTAME 0.01 nM-100 nM from the 2-cell stage

Cc1ncc([N+](=O)[O-])n1CCOC(=O)NC(Nc1ncccn1)C(Cl)(Cl)Cl (stereo not drawn) [APCin]
micronuclei (mouse embryos [1]; APCin 10 μM): reduction in micronuclei

CC(C)Oc1ccc(C(=O)N[C@H](CNC(=O)CN(C)C)Cc2ccc(-c3cn4cccc([C@H](C)O)c4n3)cc2)cc1Cl [GSK923295]
number of severely misaligned chromosomes at anaphase onset (span, all cases) (mouse embryos [2]; [6]): at least one, and as many as nine | severely misaligned chromosomes at anaphase onset (mean) (mouse embryos [2]; [6]): 3.6±0.3 per cell | NEBD to metaphase and metaphase to anaphase times (mouse embryos [2]; 500 nM GSK, eight- to sixteen-cell division): extended | mitotic index (mouse embryos [3]; 500 nM GSK923295): 23% | metaphase cells with multiple misaligned chromosomes (mouse embryos [3]; 500 nM GSK923295): 93% | mitotic arrest with simultaneous nocodazole (mouse embryos [3]; 1 μM nocodazole + 500 nM GSK923295, 16 hr): mounted a robust mitotic arrest | mitotic index (mouse embryos [3]; 5 μM GSK923295): 12% | metaphase cells with multiple misaligned chromosomes (mouse embryos [3]; 5 μM GSK923295): 100% | misaligned chromosomes at anaphase onset harbouring Mad1:GFP at kinetochores (mouse embryos [4]): 80% | misaligned chromosomes at anaphase onset (mean) (mouse embryos [4]; H2B:RFP and Mad1:EGFP-expressing embryos): 3.5±0.4 per cell

COC(=O)Nc1nc2ccc(C(=O)c3cccs3)cc2[nH]1 [nocodazole]
change in mitosis duration (mouse embryos [2]; blastocysts (~32-64 cell stage)): prolonged mitosis appreciably | change in mitosis duration (mouse embryos [2]; morulae (8-16 cell stage)): only a minimal extension of mitosis | change in mitosis duration (mouse embryos [2]; two-cell stage): prolonged mitosis appreciably | Anaphase lagging chromosomes (mouse embryos [2]; nocodazole-treated (10 nM) morulae): 19 % of divisions | mitotic index (mouse embryos [3]; 100 nM nocodazole, 16-hour exposure): 40% | mitotic index (mouse embryos [3]; 1 μM nocodazole, 16-hour exposure): 95% | Mad2 at kinetochores (mouse embryos [3]; nocodazole-treated cells): Mad2 was evident at kinetochores | change in mitosis duration (mouse embryos [5]; morulae): not in morulae | change in mitosis duration (mouse embryos [5]; two-cell stage): extended mitosis at the two-cell stage

COC(=O)[C@H](CCCN/C(=N\C(=O)OCOC(=O)Cc1ccccc1)NC(=O)OCOC(=O)Cc1ccccc1)NS(=O)(=O)c1ccc(C)cc1 [proTAME]
extension of mitosis duration (mouse embryos [2]; 10 nM proTAME vs DMSO): 19% | increase in duration of mitosis (mouse embryos [2]; 10 nM proTAME vs DMSO): ~10 min | incidence of misaligned chromosomes at anaphase onset (mouse embryos [2]; 10 nM proTAME, control 28%, P=0.025): 16% | duration of mitosis (mouse embryos [2]; 10 nM proTAME, morula stage, control 51.7±1.4, P<0.0001): 61.7 ± 2.3 min | micronuclei per cell in blastocyst (mouse embryos [1]; 10 nM proTAME): 0.013 micronuclei per cell | micronuclei per cell in blastocyst (mouse embryos [1]; "nM" proTAME (figure missing)): 0.012 micronuclei per cell | blastocyst cell number (mouse embryos [1]; [7]): did not affect blastocyst cell number | embryo development to blastocyst (mouse embryos [1]; [7]): permissive of development to blastocyst | embryo development to blastocyst (mouse embryos [1]; proTAME 1-10 μM from the 2-cell stage): prevented embryo development to blastocyst

AZ3146
duration of mitosis (mouse embryos [2]; 20 μM AZ3146, 16-32C transition, control 53±3 mins, P<0.0001): 33 ± 1 min | chromosomes remaining misaligned at anaphase onset (mouse embryos [2]; 20 μM AZ3146, control 24%, P<0.0001): 63% | reversal of nocodazole-induced mitotic arrest (mouse embryos [3]; 100 nM nocodazole and 20 μM AZ3146): the arrest was reversible | blastocyst cell numbers (mouse embryos [1]; AZ3146 (20 μM)): Neither treatment prevented development to blastocyst or altered cell numbers | development to blastocyst (mouse embryos [1]; AZ3146 (20 μM)): Neither treatment prevented development to blastocyst | number of micronuclei compared to controls (mouse embryos [1]; AZ3146-treated embryos): doubled

Mad2 MO: morpholino oligonucleotide against Mad2, 5′-GCTCTCGGGCGAGCTGCTGTGCCAT-3′ (Gene tools LLC) (all phosphorodiamidate morpholino (PMO))
blastocyst cell numbers (mouse embryos [1]; Mad2 MO microinjected): Neither treatment prevented development to blastocyst or altered cell numbers | development to blastocyst (mouse embryos [1]; Mad2 MO microinjected): Neither treatment prevented development to blastocyst | number of micronuclei compared to controls (mouse embryos [1]; Mad2 MO-injected embryos vs Control MO): doubled | timing of meiosis-I (polar body extrusion) (oocytes): characteristic acceleration of meiosis-I
